Reference: patent US11415579B2, “Assay for measuring a rate of reaction between a target and a ligand candidate” (Imperial College Innovations Ltd., priority 2016, dated 2022)

Legend:
[1] = molecular target: T1, Cdk2(N272C) (C177A) (Homo sapiens, UniProt P24941, C177A/N272C); test: Kinetic thiol consumption assay with Cdk2 mutant N272C; format: binding; design: key to Rate enhancement, Cdk2 N272: rate constant with Cdk2 ÷ rate constant with model thiol (fold); settings: for Rate enhancement, Cdk2 N272: Cdk2 N272, additional mutation C177A; for Rate constant with Cdk2 N272C: Protein: Cdk2, cysteine position N272C, additional mutation C177A, in h^-1
T1 construct: poly-histidine; made in house; host or cells: E. coli
Outline: (§1)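 5 μM thiol, degassed phosphate pH 8, 2% v/v immobilized TCEP beads; 1 h RT; fluorescence ex 380/em 470 nm; normalized vs DMSO/thiol-only; first-order exponential decay fit → rate constant; Cdk2 k / model-thiol k = rate enhancement per acrylamide.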

[2] = molecular target: T2, Cdk2(R122C) (C177A) (Homo sapiens, UniProt P24941, C177A/R122C); test: Kinetic thiol consumption assay with Cdk2 mutant R122C; format: binding; design: key to Rate enhancement, Cdk2 R122C: rate constant with Cdk2 ÷ rate constant with model thiol (fold); settings: additional mutation C177A; for Rate constant with Cdk2 R122C: Protein: Cdk2, cysteine position R122C, in h-1
T2 construct: poly-histidine; made in house; host or cells: E. coli
Outline: as §1

[3] = molecular target: T3, Cdk2(T182C) (C177A) (Homo sapiens, UniProt P24941, C177A/T182C); test: Kinetic thiol consumption assay with Cdk2 mutant T182C; format: binding; design: key to Rate enhancement, Cdk2 T182C: rate constant with Cdk2 ÷ rate constant with model thiol (fold); settings: additional mutation C177A; for Rate constant with Cdk2 T182C: Protein: Cdk2, cysteine position T182C, in h^-1
T3 construct: poly-histidine; made in house; host or cells: E. coli
Outline: as §1

[4] = molecular target: T4, Cdk2(H71C) (C177A) (Homo sapiens, UniProt P24941, C177A/H71C); test: Kinetic thiol consumption assay with Cdk2 mutant H71C; format: binding; design: key to Rate enhancement, Cdk2 H71C: rate constant with Cdk2 ÷ rate constant with model thiol (fold); settings: additional mutation C177A; for Rate constant with Cdk2 H71C: Protein: Cdk2, cysteine position H71C, in h^-1
T4 construct: poly-histidine; made in house; host or cells: E. coli
Outline: as §1

[5] = molecular target: T5, Cdk2(S181C) (C177A) (Homo sapiens, UniProt P24941, C177A/S181C); test: Kinetic thiol consumption assay with Cdk2 mutant S181C; format: binding; design: key to Rate enhancement, Cdk2 S181C: rate constant with Cdk2 ÷ rate constant with model thiol (fold); settings: additional mutation C177A; for Rate constant with Cdk2 S181C: Protein: Cdk2, cysteine position S181C, in h^-1
T5 construct: poly-histidine; made in house; host or cells: E. coli
Outline: as §1

[6] = molecular target: T6, Cdk2[C177A, F80C, K278C] (Homo sapiens, UniProt P24941, C177A/F80C/K278C); test: Kinetic thiol consumption assay with mutant Cdk2 as model thiol; format: binding; design: unit not given here; settings: 500 μM ligand, 5 μM thiol, phosphate buffer pH 8
T6 construct: poly-histidine; made in house; host or cells: E. coli
Experimental: A library of 120 acrylamides was screened against a) human cyclin-dependent kinase 2 (Cdk2, which contains one surface exposed cysteine residue—C177), prepared by cloning cDNA into the pRSETA bacterial expression vector to generate a poly-histidine tagged Cdk2 fusion that was purified from E. coli using standard techniques, and b) a model thiol (specific details are given below). The structures of these 120 acrylamides are set out in Table 1, above.
To wells containing 150 μL thiol (Cdk2 or model thiol) (5 μM) in degassed phosphate buffer (pH 8) was added immobilized TCEP beads (2% v/v).
After incubation of the fluorescence plates for 1 hour at room temperature, fluorescence measurements (excitation/emission of 380/470 nm) were taken on a PerkinElmer EnVision multilabel plate reader and processed with EnVision Workstation version 1.12.
Fluorescence measurements were normalized against a DMSO/thiol only control and plotted against time.
Rate constants were calculated using GraphPad software Prism version 6 by fitting a first order exponential decay to the data. The rate constant for each acrylamide with Cdk2 was divided by the rate constant for that fragment with the model thiol to provide the rate enhancement for each ligand candidate.
The model thiol used in Example 2 is a mutant form of human Cdk2 (C177A, F80C, K278C) which contains two engineered surface exposed cysteine residues. Mutations were introduced by site-directed mutagenesis and the resulting cDNA was cloned into the pRSETA bacterial expression vector to generate a poly-histidine tagged Cdk2 fusion that was purified from E. coli using standard techniques.

[7] = molecular target: T7, Cdk2(S276C) (C177A) (Homo sapiens, UniProt P24941, C177A/S276C); test: Kinetic thiol consumption assay with Cdk2 mutant S276C; format: binding; design: key to Rate enhancement, Cdk2 S276C: rate constant with Cdk2 ÷ rate constant with model thiol (fold); settings: additional mutation C177A; for Rate constant with Cdk2 S276C: Protein: Cdk2, cysteine position S276C, in h^-1
T7 construct: poly-histidine; made in house; host or cells: E. coli
Outline: as §1

[8] = molecular target: T8, human cyclin-dependent kinase 2 (Cdk2) (Homo sapiens, UniProt P24941); test: Kinetic thiol consumption assay with wild type Cdk2 (C177); format: binding; design: key to Rate enhancement, Cdk2 WT: k(Cdk2) divided by k(model thiol); Rate constant with Cdk2 (k(Cdk2)): unit not given here; settings: for Rate constant with Cdk2 (k(Cdk2)): 500 μM ligand, 5 μM thiol, phosphate buffer pH 8; for Rate enhancement, Cdk2 WT: no additional mutations; for Rate constant with Cdk2 WT: Protein: Cdk2, cysteine position WT, in h^-1; for k(Cdk2)/k(Cdk2_mut) rate enhancement: model thiol Cdk2[C177A, F80C, K278C]; for k(Cdk2)/k(GSH) rate enhancement: model thiol glutathione
T8 construct: poly-histidine; made in house; host or cells: E. coli
Outline: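 Rate enhancement: first-order decay constant with Cdk2 over that with a model thiol. Thiols (5 μM, degassed phosphate buffer pH 8, immobilized TCEP) were incubated with acrylamides at room temperature, and thiol consumption followed by fluorescence at 380/470 nm, normalized to DMSO control. Cdk2 was His-tagged, E. coli-expressed, with one surface cysteine (C177).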

[9] = molecular target: T9, Cdk2(C177A, F80C) (Homo sapiens, UniProt P24941, C177A/F80C); test: Kinetic thiol consumption assay with Cdk2 mutant F80C, incl. kobs versus concentration (Kd, k2); format: binding; design: key to Rate enhancement, Cdk2 F80C: Cdk2 rate constant divided by model-thiol rate constant; settings: additional mutation C177A; for Rate constant with Cdk2 F80C: Protein: Cdk2, cysteine position F80C, in h^-1
T9 construct: poly-histidine; made in house; host or cells: E. coli
Outline: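 His-tagged Cdk2(C177A/F80C) from E. coli or model thiol, 5 μM in degassed phosphate buffer pH 8 with TCEP beads, reacted with acrylamide ligands; fluorescence (ex/em 380/470 nm) normalized to DMSO control and fitted to first-order decay for kobs. Kd and k2 obtained from hyperbolic fit of kobs versus ligand concentration.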

[10] = Kinetic thiol consumption assay with model thiol glutathione; format: physicochemical; design: Rate constant with glutathione (k(GSH)): unit not given here; settings: for Rate constant with glutathione (k(GSH)): 500 μM ligand, 5 μM thiol, phosphate buffer pH 8; for Rate constant with Glutathione: Protein: Glutathione, cysteine position NA, in h-1
Outline: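 First, 5 μM glutathione in degassed phosphate buffer (pH 8) receives immobilized TCEP beads (2% v/v). Then acrylamide is added and plates incubate 1 h at room temperature. Finally, fluorescence (380/470 nm) is normalized and fitted to first-order decay for rate constants.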

Row | Compound | Rate enhancement, Cdk2 N272 [1] | Rate constant with Cdk2 N272C [1] | Rate enhancement, Cdk2 R122C [2] | Rate constant with Cdk2 R122C [2] | Rate enhancement, Cdk2 T182C [3] | Rate constant with Cdk2 T182C [3] | Rate enhancement, Cdk2 H71C [4] | Rate enhancement, Cdk2 S181C [5] | Rate constant with Cdk2 S181C [5] | Rate constant with Cdk2[C177A, F80C, K278C] (k(Cdk2_mut)) [6] | Rate enhancement, Cdk2 S276C [7] | Rate constant with Cdk2 S276C [7] | Rate constant with Cdk2 (k(Cdk2)) [8] | Rate enhancement, Cdk2 WT [8] | Rate constant with Cdk2 WT [8] | k(Cdk2)/k(Cdk2_mut) rate enhancement [8] | k(Cdk2)/k(GSH) rate enhancement [8] | Rate enhancement, Cdk2 F80C [9] | Rate constant with glutathione (k(GSH)) [10] | Rate constant with Glutathione [10] | further results
1 | C=CC(=O)N1CCN(S(C)(=O)=O)CC1c1ccccc1 (centres unmarked) [EL-1160] | 0.5689 | 0.0163 | 0.2711 | 0.007767 | 2 | 0.05729 | 0.9714 | 0.4684 | 0.01342 | 0.00414 | 0.7682 | 0.02201 | 0.01181 | 0.4122 | 0.01181 | 2.854 | 0.4129 | 0.4705 | 0.0286 | 0.02865 | Rate constant with Cdk2 H71C [4]: 0.02783; Rate constant with Cdk2 F80C [9]: 0.01348
2 | C=CC(=O)N1CCn2cccc2C1c1ccccc1 (centres unmarked) [CA-187] | 0.7126 | 0.03139 | 0.4465 | 0.01967 | 4.62 | 0.2035 | 1.456 | 0.2036 | 0.00897 | 0.01772 | 1.852 | 0.08156 | 0.02811 | 0.6381 | 0.02811 | 1.586 | 0.6384 | 0.3805 | 0.04403 | 0.04405 | Rate constant with Cdk2 H71C [4]: 0.06414; Rate constant with Cdk2 F80C [9]: 0.01676
3 | C=CC(=O)NCC1CCCN1S(=O)(=O)c1ccc(C(=O)O)cc1 (centres unmarked) [BN122] | 0.7423 | 0.004448 | 0.4317 | 0.002587 | 2.502 | 0.01499 | 0 | 0.9743 | 0.005838 | 0.00117 | 0.1643 | 0.0009842 | 0.00219 | 0.3657 | 0.002191 | 1.879 | 0.7753 | 0.3899 | 0.00283 | 0.005992 | Rate constant with Cdk2 F80C [9]: 0.002336
4 | C=CC(=O)Nc1[nH]nc(C2CC2)c1-c1ccc2c(c1)OCO2 [CA-041] | 0.008585 | 0.004727 | 0.003956 | 0.002178 | 0.8554 | 0.471 | 0.007207 | 0.005756 | 0.003169 | 1.933 | 0.0064 | 0.003524 | 1.146 | 2.081 | 1.146 | 0.5929 | 2.106 | 0 | 0.5441 | 0.5506 | Rate constant with Cdk2 H71C [4]: 0.003968
